Experiments:
[1] = tested on: A549-ACE2 infected with SARS-CoV-2; test: cell count relative to DMSO; higher = less toxic; conditions: 24 h
Caco-2 [2] = test: cell viability relative to DMSO; higher = less toxic; conditions: 72 h
Calu-3 [3] = test: as above; conditions: 72 h
HepG2 [4] = test: as above; conditions: 72 h
U2OS [5] = test: as above; conditions: 72 h
Vero E6 [6] = test: as above; conditions: 72 h
[7] = tested on: A549-ACE2 infected with SARS-CoV-2; test: SARS-CoV-2 infection rate relative to DMSO; higher = more infection; conditions: 24 h
A549-ACE2 [8] = test: drug-induced phospholipidosis relative to tamoxifen; higher = more phospholipidosis
[9] = tested on: A549-ACE2 infected with SARS-CoV-2; test: morphology score (similarity to uninfected cells); higher = more like uninfected cells; conditions: 24 h
Calu-3 [10] = test: relative viability EC50 (midpoint between 100% and the lowest measured viability); higher = less toxic; conditions: 72 h
HepG2 [11] = test: as above; conditions: 72 h
U2OS [12] = test: as above; conditions: 72 h
Vero E6 [13] = test: as above; conditions: 72 h
Caco-2 [14] = test: drug sensitivity score (DSS) for viability; higher = more toxic; extreme values may be limits of the assay; conditions: 72 h
Calu-3 [15] = test: as above; conditions: 72 h
HepG2 [16] = test: as above; conditions: 72 h
U2OS [17] = test: as above; conditions: 72 h
Vero E6 [18] = test: as above; conditions: 72 h
Caco-2 [19] = test: relative viability EC50 (midpoint between 100% and the lowest measured viability); higher = less toxic; conditions: 72 h
A549-ACE2 [20] = test: phospholipidosis EC50; higher = less potent phospholipidosis inducer; conditions: 24 h

C#C[C@]1(O)CC[C@H]2[C@@H]3CCc4cc(OC5CCCC5)ccc4[C@H]3CC[C@@]21C [quinestrol]
Conditions	SARS-CoV-2 infection rate, [7] [%]	cell count, [1] [%]	cell viability, Caco-2 [2] [%]	cell viability, Calu-3 [3] [%]	cell viability, HepG2 [4] [%]	cell viability, U2OS [5] [%]	cell viability, Vero E6 [6] [%]	morphology score, [9]
1 nM	–	–	99.4	97.9	92.1	102	98.4	–
10 nM	–	–	92.1	98.6	93.2	98.9	104	–
100 nM	–	–	98.7	99.8	88.9	104	100	–
0.3 µM	103	105	–	–	–	–	–	-0.03
1000 nM	–	–	96.5	91.1	95.5	100	104	–
3 µM	85	110	–	–	–	–	–	0.43
10 µM	41	85	–	–	–	–	–	0.68
10000 nM	–	–	67.8	41	76.6	93.8	87.4	–
30 µM	42	23	–	–	–	–	–	0.01

drug-induced phospholipidosis [%], A549-ACE2 [8]
Conditions	0.3 µM	0.833333 µM	3.33333 µM	6.66667 µM	10 µM	30 µM
24 h	11.1	13.7	17.2	16.9	13.9	23.3
48 h	12.2	17.8	21.2	25.8	23.6	37.6
72 h	8.56	16.2	19.1	27.3	29.2	–

Conditions	drug sensitivity score	relative viability EC50 [µM]
Caco-2 [14]	2	–
Calu-3 [10]	–	1.98
Calu-3 [15]	4.7	–
HepG2 [11]	–	> 10
HepG2 [16]	1.3	–
U2OS [12]	–	> 10
U2OS [17]	0	–
Vero E6 [13]	–	> 10
Vero E6 [18]	0	–

CNC(=O)c1cc(Oc2ccc(NC(=O)Nc3ccc(Cl)c(C(F)(F)F)c3)cc2)ccn1 [sorafenib]
Conditions	SARS-CoV-2 infection rate, [7] [%]	cell count, [1] [%]	cell viability, Caco-2 [2] [%]	cell viability, Calu-3 [3] [%]	cell viability, HepG2 [4] [%]	cell viability, U2OS [5] [%]	cell viability, Vero E6 [6] [%]	morphology score, [9]
1 nM	–	–	95.1	107	105	98.7	97.4	–
10 nM	–	–	93.2	104	113	99.1	98.9	–
0.1 µM	110	97	–	–	–	–	–	-0.27
100 nM	–	–	96.1	109	99.2	103	104	–
0.3 µM	103	101	–	–	–	–	–	-0.32
1 µM	116	92	–	–	–	–	–	-0.4
1000 nM	–	–	99.1	108	80.5	111	113	–
3 µM	103	93	–	–	–	–	–	-0.27
10000 nM	–	–	47.9	82.2	12.7	39.7	55.6	–

drug-induced phospholipidosis [%], A549-ACE2 [8]
Conditions	0.3 µM	0.833333 µM	3.33333 µM	6.66667 µM	10 µM	30 µM
24 h	-0.66	-4.32	-10.5	-0.85	-20.6	-18.5
48 h	0.68	-2.57	-3.57	0.31	–	–
72 h	3.23	-1.46	-1.25	-4.18	–	–

Conditions	drug sensitivity score	relative viability EC50 [µM]
Caco-2 [14]	2.9	–
Caco-2 [19]	–	3.04
Calu-3 [10]	–	> 10
Calu-3 [15]	0.2	–
HepG2 [11]	–	1.64
HepG2 [16]	7.9	–
U2OS [12]	–	3.88
U2OS [17]	2.6	–
Vero E6 [18]	1.7	–

CC(C)n1cnc2c(NCCc3ccc(O)cc3)nc(-c3csc4ccccc34)nc21 [stemregenin-1]
Conditions	SARS-CoV-2 infection rate, [7] [%]	cell count, [1] [%]	cell viability, Caco-2 [2] [%]	cell viability, Calu-3 [3] [%]	cell viability, HepG2 [4] [%]	cell viability, U2OS [5] [%]	cell viability, Vero E6 [6] [%]	morphology score, [9]
1 nM	–	–	92.3	99.6	92.7	103	99.4	–
10 nM	–	–	104	109	91.9	101	101	–
100 nM	–	–	87.3	101	97.4	95.1	104	–
0.3 µM	93	101	–	–	–	–	–	0.34
1000 nM	–	–	99.3	80.4	91.6	96.3	100	–
3 µM	84	103	–	–	–	–	–	0.46
10 µM	60	117	–	–	–	–	–	0.84
10000 nM	–	–	54	54.3	70.7	80.7	85.7	–
30 µM	26	45	–	–	–	–	–	0

drug-induced phospholipidosis [%], A549-ACE2 [8]
Conditions	0.3 µM	0.833333 µM	3.33333 µM	6.66667 µM	10 µM	30 µM
24 h	6.01	1.64	8.25	15.8	28.5	16.7
48 h	9.44	5.9	8.13	14.7	21.9	–
72 h	7.3	7.32	13.4	21.2	27	–

Conditions	drug sensitivity score	relative viability EC50 [µM]
Caco-2 [14]	2.5	–
Calu-3 [15]	5	–
HepG2 [16]	2.3	–
U2OS [12]	–	> 10
U2OS [17]	1	–
Vero E6 [13]	–	> 10
Vero E6 [18]	0.2	–

CN(C)CCCCC(=O)Nc1ccc(NC(=S)NC(=O)c2ccc(C(C)(C)C)cc2)cc1 [tenovin-6]
Conditions	SARS-CoV-2 infection rate, [7] [%]	cell count, [1] [%]	cell viability, Caco-2 [2] [%]	cell viability, Calu-3 [3] [%]	cell viability, HepG2 [4] [%]	cell viability, U2OS [5] [%]	cell viability, Vero E6 [6] [%]	morphology score, [9]
1 nM	–	–	92.9	91.1	107	94	99.4	–
10 nM	–	–	100	107	101	97.9	96.7	–
0.1 µM	91	100	–	–	–	–	–	0.22
100 nM	–	–	98.5	101	110	96.3	104	–
0.3 µM	90	102	–	–	–	–	–	0.15
1 µM	93	98	–	–	–	–	–	-0.08
1000 nM	–	–	94.6	95.1	88.8	101	103	–
3 µM	23	113	–	–	–	–	–	0.8
10000 nM	–	–	12.2	4.2	0.8	5.4	27.8	–

Conditions	drug sensitivity score	phospholipidosis EC50 [µM]	relative viability EC50 [µM]
A549-ACE2 [20]	–	2.91	–
Caco-2 [14]	5.7	–	–
Caco-2 [19]	–	–	2.68
Calu-3 [10]	–	–	2.77
Calu-3 [15]	6	–	–
HepG2 [11]	–	–	2.24
HepG2 [16]	7.3	–	–
U2OS [12]	–	–	3.24
U2OS [17]	5.2	–	–
Vero E6 [13]	–	–	3.37
Vero E6 [18]	3.8	–	–

drug-induced phospholipidosis [%], A549-ACE2 [8]
Conditions	0.3 µM	0.833333 µM	3.33333 µM	6.66667 µM	10 µM
24 h	-1.65	-1.47	61.4	90.4	56.6
48 h	1.91	0.33	30	–	–
72 h	0.744	-3.12	26.8	–	–

From the supplement of paper PMC13380429
